In ChEMBL document CHEMBL1137505, “Direct diazo-transfer reaction on beta-lactam: synthesis and preliminary biological activities of 6-triazolylpenicillanic acids” (2007) one finds MIC data, which are given here for 15 molecules.

As a reminder, the MIC is the lowest concentration found to suppress growth. Lower therefore signals greater potency.

Values after ≈ are worked out from the molar mass of the structure shown.

Holding throughout (format): functional
Test [1] has as its system Bacillus anthracis. Put plainly: Antibacterial activity against Bacillus anthracis AMES.
Test [2] concerns Escherichia coli. The test can be described thus: Antibacterial activity against Escherichia coli ATCC 25922.
For test [3], the system named is Staphylococcus aureus. The test can be described thus: Antibacterial activity against Staphylococcus aureus ATCC 29213.
For test [4], the system named is Streptococcus pneumoniae. Put plainly: Antibacterial activity against Streptococcus pneumoniae ATCC 49619.

On to `CC1(C)S[C@@H]2[C@H](n3cc(-c4ccc(-c5ccccc5)cc4)nn3)C(=O)N2[C@H]1C(=O)O`, for which the MIC in test [1] is greater than 8 µg/mL; in test [2], greater than 8 µg/mL; in test [3], greater than 8 µg/mL; in test [4], no less than 8 µg/mL.
As to `CC1(C)S[C@@H]2[C@H](n3cc(-c4ccccc4)nn3)C(=O)N2[C@H]1C(=O)O`, the MIC is greater than 8 µg/mL in test [1], greater than 8 µg/mL in test [2], greater than 8 µg/mL in test [3] and 4 µg/mL (≈ 11.6 µM) in test [4].
`CC1(C)S[C@@H]2[C@H](n3cc(-c4cccnc4)nn3)C(=O)N2[C@H]1C(=O)O`: the minimal inhibitory concentration (MIC) in test [1], in test [2], in test [3] and in test [4] was greater than 8 µg/mL in each case.
On to `CC1(C)S[C@@H]2[C@H](n3cc(Cc4ccccc4)nn3)C(=O)N2[C@H]1C(=O)O`, for which the minimal inhibitory concentration (MIC) in test [1] was greater than 8 µg/mL; in test [2] it was greater than 8 µg/mL; in test [3], greater than 8 µg/mL; in test [4], 4 µg/mL (≈ 11.2 µM).
With `CCN1CCN(C(=O)N[C@@H](C(=O)N[C@@H]2C(=O)N3[C@@H]2SC(C)(C)[C@@H]3C(=O)O)c2ccccc2)C(=O)C1=O` [PIPERACILLIN], the MIC in test [1] was 1 µg/mL (≈ 1.93 µM); in test [2], 4 µg/mL (≈ 7.73 µM); in test [3], 2 µg/mL (≈ 3.86 µM).
As to `CC1(C)S[C@@H]2[C@H](n3cc(-c4ccc(-c5ccncc5)cc4)nn3)C(=O)N2[C@H]1C(=O)O`, the MIC in test [1], in test [2], in test [3] and in test [4] was greater than 8 µg/mL each time.
With `CC1(C)S[C@@H]2[C@H](n3cc(-c4cccs4)nn3)C(=O)N2[C@H]1C(=O)O`, the MIC was greater than 8 µg/mL in test [1], greater than 8 µg/mL in test [2], greater than 8 µg/mL in test [3] and 8 µg/mL (≈ 22.8 µM) in test [4].
Consider `CC1(C)S[C@@H]2[C@H](NC(=O)Cc3ccccc3)C(=O)N2[C@H]1C(=O)O` [PENICILLIN G], for which the MIC was no more than 0.125 µg/mL in test [1], greater than 2 µg/mL in test [2] and 1 µg/mL (≈ 2.99 µM) in test [3].
`CC1(C)S[C@@H]2[C@H](n3cc(-c4ccncc4)nn3)C(=O)N2[C@H]1C(=O)O`: the MIC in test [1], in test [2], in test [3] and in test [4] was greater than 8 µg/mL throughout.
Regarding `CC1(C)S[C@@H]2[C@H](n3cc(-c4cccc(-c5ccccc5)c4)nn3)C(=O)N2[C@H]1C(=O)O`, the MIC in test [1], in test [2], in test [3] and in test [4] was greater than 8 µg/mL in each case.
Consider `CC1(C)S[C@@H]2[C@H](n3cc(-c4ccccc4-c4ccccc4)nn3)C(=O)N2[C@H]1C(=O)O`, for which the MIC in test [1], in test [2], in test [3] and in test [4] was greater than 8 µg/mL each time.
Regarding `CC1(C)S[C@@H]2[C@H](n3cc(-c4ccccn4)nn3)C(=O)N2[C@H]1C(=O)O`, the MIC in test [1], in test [2], in test [3] and in test [4] was greater than 8 µg/mL each time.
As for `CC1(C)S[C@@H]2[C@H](n3cc(C(O)c4ccccc4)nn3)C(=O)N2[C@H]1C(=O)O` (stereo partly drawn), the minimum inhibitory concentration (MIC) in test [1], in test [2], in test [3] and in test [4] was greater than 8 µg/mL each time.
`COc1cccc(OC)c1-c1cn([C@@H]2C(=O)N3[C@@H]2SC(C)(C)[C@@H]3C(=O)O)nn1`: the MIC in test [1], in test [2], in test [3] and in test [4] was greater than 8 µg/mL in each case.
Regarding `CC1(C)S[C@@H]2[C@H](n3cc(C(O)c4ccc(-c5ccncc5)cc4)nn3)C(=O)N2[C@H]1C(=O)[O-].[Na+]` (stereo partly drawn), the MIC is no less than 8 µg/mL in test [1], greater than 8 µg/mL in test [2], greater than 8 µg/mL in test [3] and no less than 8 µg/mL in test [4].
